“Also recorded” adds a separate entry of the source. One block for each compound: values may come before it.
What was measured:
BT-20 cells [1] = assay: Antineoplastic activity of free and liposomal CN (viable cell number, trypan blue); assay type: cell-based, human; settings: single administration, 800 uM; listed as free CN
Description: To determine whether this effect leads to enhanced antineoplastic activity, the antineoplastic activity of free and liposomal CN was examined in BT-20 cells. […] Control cells in the liposomal condition received the equivalent levels of liposomes without CN. Following a 24, 48 or 72 hr incubation, cells from six replicate wells were pooled and the number of viable cells determined using trypan blue and a hemocytometer.

cell growth [2] = settings: in vitro, cited from earlier work
BT-20 cells [3] = assay: Cellular uptake of free and liposomal antineoplastons into BT-20 cells (reduction of media concentration, HPLC); settings: for level of uptake associated with equivalent antineoplastic activity (IC50): at IC50 concentration (~0.8 mM CN, 15 mM PN); for dependence of cellular uptake on media concentration: end of eight hour incubation; for uptake rate on second and third days / cellular uptake (qualitative): free compound; for uptake rate on second and third days: day two and three vs first day; for cellular uptake (qualitative): time course up to 72 hours
Description: The time-course and concentration dependency of the cellular uptake of free and liposomally formulated antineoplaston agents in Examples 2, 3 and 4 were assayed by monitoring reductions in media concentrations. The uptake of these antineoplaston agents were examined in BT-20 human breast cancer cells.
Cellular uptake of free D- and free L-CN (3-phenylacetyl-amino-2, 6, piperidinedione) were investigated in BT-20 cells. Cells were plated in 200 μl of media (3,000 cells/well--96 well plates), and 24 or 96 hrs later the plating media was replaced with fresh media containing free CN at final concentrations of 100, 300, 500, 800 μM. The levels of CN remaining in the media were determined following 0, 2, 4, 6, 8, 24, 48 and 72 hours of incubation. When the cellular uptake of liposomal antineoplastons was assessed, the total levels of liposomes were equivalent across all levels of the test agents.
At the indicated times after the addition of the test compound, the media was harvested, centrifuged (110 ×g; 10 min; 4° C.) and the supernatant stored at -70° C. until assayed using a validated HPLC method. For each test agent, all concentrations were tested at all time points and there were six replicate wells at each time point. Media from the replicate wells was pooled for the HPLC analysis. Compound levels were determined with at least two HPLC injections and the variance between injections was less than 10%.
Cellular uptake of free PN was investigated in BT-20 cells.
Cellular uptake of liposomal CN was investigated in BT-20 cells.

cell growth [4] = assay: In vitro dose-response studies on individual components of antineoplaston therapy (cell growth); assay type: cell-based; settings: Homo sapiens; free compound; cell line not stated (uptake example in BT-20); read-out: IC50 (antineoplastic activity)
[5] = test system: BT-20 human breast cancer cells; assay: Uptake and intracellular levels of free and bound CN and PG/Iso-PG (intracellular metabolism of free and liposomal CN); assay type: in vitro ADME; settings: 24 hr
Description: At selected times the cells were washed (3×with PBS), trypsinized, pooled, and homogenized in 200 μl of isotonic saline. […] Antineoplaston components or their derivatives found in the supernatant are considered to be unbound or "free", while antineoplaston agents in the pellet are thought to be "bound" to protein or cellular structures easily pelleted by low gravity centrifugation. […] To better understand the time course of the intracellular fate of liposomal CN, BT-20 cells were exposed as in Example 5 to liposomal CN for 1, 2 and 4 hours.

[6] = test system: human glioblastoma (U87) cells; assay: Antineoplastic effect of free and liposomal AS2-1, PG and PN (cell counts); settings: U-87 MG, 72 h, read-out: IC50 (concentration producing a half maximal antineoplastic effect)
U87 cells = assay: Cellular uptake of free and liposomal PN and PG in U87 cells
Description: Experiments with this cell line plated 3000 cells per well and following a four day interval to allow the cells to enter the exponential growth phase the test agents were added. The media was replaced on day three and cell counts were obtained at day 3 and 7.

level of uptake associated with equivalent antineoplastic activity (IC50) (BT-20 cells [3]): ~ 30 pmoles/cell | dependence of cellular uptake on media concentration (BT-20 cells [3]): linearly related to media concentration | Uptake of CN ([5]; 800 μM CN (53 pmole/cell) added): 43.2 pmole/cell | Free intracellular PG/Iso-PG ([5]; 800 μM CN added): 36.7 pmole/cell
Structure (SMILES): O=C1CCC(NC(=O)Cc2ccccc2)C(=O)N1 (centres unmarked) [CN, 3-phenylacetyl-amino-2,6, piperidinedione]
antineoplastic activity / suppression of BT-20 cell growth (BT-20 cells [1]): ineffective in suppressing BT-20 cell growth; also recorded: no antineoplastic activity | suppression of cell growth (cell growth [2]; at ~0.8 mM): 50% | antineoplastic activity on a molar basis (cell growth [2]; relative to other components): most potent antineoplastic activity | cellular uptake by 72 hours (BT-20 cells [3]; 72 hours): approximating that produced by liposomal CN during a two hour incubation | IC50 (cell growth [4]): ~0.8 mM | Free intracellular CN ([5]; 800 μM, ND = Not detected): intact CN cannot be found inside the cells

cellular uptake (qualitative) (BT-20 cells [3]): rapidly and extensively taken up
Structure (SMILES): O=C1CC[C@@H](NC(=O)Cc2ccccc2)C(=O)N1 [D-CN]
uptake rate on second and third days (BT-20 cells [3]): do not exhibit this late stage reduction in CN uptake

cellular uptake during the first six hours (BT-20 cells [3]; free D-CN vs free L-CN): more effectively than free D-CN | cellular uptake (qualitative) (BT-20 cells [3]): rapidly and extensively taken up
Structure (SMILES): O=C1CC[C@H](NC(=O)Cc2ccccc2)C(=O)N1 [L-CN]
uptake rate on second and third days (BT-20 cells [3]): the rate of uptake is diminished on the second and third days of the incubation

Structure (SMILES): O=C(O)Cc1ccccc1 [PN, phenylacetate]
uptake per cell (BT-20 cells [3]; BT-20 cells, 30 mM, comparison value): ~ 55 pmole | level of uptake associated with equivalent antineoplastic activity (IC50) (BT-20 cells [3]): ~ 30 pmoles/cell | dependence of cellular uptake on media concentration (BT-20 cells [3]): linearly related to media concentration | cellular uptake (qualitative) (BT-20 cells [3]): concentration- and time-dependent take up | time to completion of uptake (BT-20 cells [3]; high concentrations (e.g., 30 mM)): completed within the first two hours | cellular uptake (BT-20 cells [3]; initial media concentration 30 mM): ~ 54 pmoles/BT-20 cell | cellular uptake (BT-20 cells [3]; media concentration 3.0 mM): ~ 14 pmoles/BT-20 cell | IC50 (cell growth [4]): ~15 mM | IC50 [6]: ~15 mM | uptake per cell (U87 cells; 30 mM free PN, U87 cells, 3 day): 50 pmol | uptake of free compound compared (PN vs PG) (U87 cells; 3 day interval): equivalent and is concentration dependent

— patent publication US6013278A (priority 1997, dated 2000)
